The values below come from ChEMBL document CHEMBL5537136 (J Med Chem, 2024).

Series [1] can be described thus: Toxicity in Balb/c mouse bearing mouse CT26 cells assessed as morphological changes in lung at 6.25 to 25 mg/kg, IG measured after 14 days by hematoxylin and eosin staining based assay. The format is organism-based. The note with it: in vivo, po, 336 h, dose 6.25-25 mg/kg, time 14 day.
The target of series [2] is T1, Protein mono-ADP-ribosyltransferase PARP11 (Homo sapiens, UniProt Q9NR21).
T1 sequence (Q9NR21 whole entry): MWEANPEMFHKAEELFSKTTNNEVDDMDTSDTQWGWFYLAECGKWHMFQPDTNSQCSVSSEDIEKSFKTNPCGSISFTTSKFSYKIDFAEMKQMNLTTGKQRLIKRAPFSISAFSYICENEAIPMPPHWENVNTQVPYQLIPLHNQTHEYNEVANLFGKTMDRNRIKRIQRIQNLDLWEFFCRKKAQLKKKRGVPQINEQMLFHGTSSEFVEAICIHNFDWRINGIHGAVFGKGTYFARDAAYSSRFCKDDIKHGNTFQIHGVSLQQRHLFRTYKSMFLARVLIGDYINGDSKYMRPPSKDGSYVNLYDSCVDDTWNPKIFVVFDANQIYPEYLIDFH
The experiment in a line: Inhibition of PARP11 (unknown origin) measured after 1 hr incubation by microplate reader assay.

As usually defined, the IC50 is the point on the concentration scale where inhibition reaches its midpoint. A lower IC50 goes with inhibition by little substance. As to `C[C@@H](C(=O)N1CCN(c2ncc(C(F)(F)F)cn2)CC1)n1cc2cccc(C(N)=O)c2n1`, the Activity entry in series [1] was “Non-Toxic”. Moreover, in series [2], the IC50 is above 5 µM.
